Results published in patent US8637461B2, “Method of diagnosing and treating oxidative stress-impaired wound healing” (Kuwait University, priority 2011, dated 2014).

Columns and labels:
[1] = Body weight and fasting plasma parameters in diabetic and hypercortisolemic rats; type: in vivo, rat
Method: (§1) All animal procedures were performed in accordance with the NIH Guidance for the Care and Use of Laboratory Animals. The current study used, respectively the GK and Dexamethasone-treated rats as models for diabetes and hypercortisolemia. Dexamethasone was administered subcutaneously at a dose of 2.5 μg/kg body weight in the morning (8:00 AM) and in the evening (8:00 PM) for a duration of four weeks before wounding and this form of therapy continued during the course of healing. […] Weight and age-matched female Wistar rats (Kuwait University breeding colony) served as the corresponding controls. All of the animals were maintained under standard conditions with 12 hours on/off light cycle, commercial diet, and water ad libitum. GK rats destined for wounding were initially matched with regard to body weight (e.g., 230 to 250 g), and plasma levels of glucose, free fatty acids and insulin. These indices are commonly used to reflect the severity of the diabetic state.
(§2) Animals used for IGF-1 sensitivity (n=6/group) and wound healing (n=8) studies were partitioned into five study groups including control, diabetic, hypercortisolemic, diabetic+EUK and hypercortisolemic+EUK. The EUK-134 was administered for duration of four weeks before wound induction and it continued during the course of healing.

[2] = system: IRS-1; assay: IRS-1 Tyr612 phosphorylation, immunoprecipitation/western blotting in dermal fibroblasts; type: cell-based, rat
Method: (§3) Primary dermal fibroblasts were obtained from dorsal skin of female Goto Kakizaki (GK, age 12-15 months) rats, a model for non-obese type 2 diabetes, and their Wistar control counterparts. After sterilization in povidine solution, rat skin was washed in sterile water and rinsed in 70% ethanol in PBS. Epidermis and dermis were separated following overnight incubation in 0.25% trypsine/EDTA at 4 C. Dermis was cut into small pieces and incubated in Dulbecco's modified Eagle medium (DMEM; Invitrogen) containing collagenase (250 U/ml; Sigma) for thirty min at 37 C in 5% CO2 with constant agitation. The sections were triturated vigorously to release fibroblasts, which were collected by centrifugation. The cell pellet was washed two times with PBS, re-suspended in complete medium (DMEM supplemented with 10% fetal calf serum, penicillin (100 U/ml), streptomycin (100 μg/ml)), 2 mM L-glutamine and 10 mM HEPES) and then cultured under a standard condition.
(§4) A hypercortisolemic state was mimicked by exposing control fibroblasts to dexamethasone (Dexa, Sigma) administered at 20 ng/ml every other day for a duration of 8 days. Similarly, the state of low-grade inflammation in fibroblasts was recapitulated experimentally by exposing these cells to TNF-α (4 ng/ml every day for 4 days). […] The concentration of IGF-1 (50 ng/ml, Peprotech) was determined by prior dose response experiment.
Levels/activities of key intracellular molecules in the IGF-1 signaling cascade including IRS-1, IRS-1 Tyr-p-612, PI3K-p85α, IRS-1 Ser-p (307), PI3K, Akt, p-Akt, INK and p-JNK were assessed using western blotting/immunoprecipitation and commercially available ELISA-based assays.
Ice-cold radioimmunoprecipitation assay (RIPA) buffer was used for the extraction of proteins from fibroblasts. Immunoprecipitation was achieved by incubating cell homogenates with anti-IRS-1 antibody overnight at 4° C. followed by the addition of protein A/G-Agarose for additional two hours. Immunoprecipitates were separated using spin-collection filters (Cytosignal), washed once with RIPA buffer/3× with PBS and then elutated by the addition of Laemmli buffer. […] Antigen-antibody complexes were visualized by an enhanced chemiluminescence system on BioMax Light Film (Kodack) and then the densitometry was analyzed using Quantity One 1-D image software (BioRad, GS 800). All densitometry data were corrected for equal loading using the house keeping gene β-actin and they were expressed as fold change vs. control.

[3] = system: reactive oxygen species (ROS); assay: ROS generation in cultured fibroblasts (DCF-DA); type: cell-based, rat; details: fibroblasts with diabetic, inflammatory or hypercortisolemia phenotypes; ROS suppressors
Method: as §3, §4
ROS generation in cultured fibroblasts was evaluated using dichloroflurescein-diacetate (DCF-DA, Molecular Probes), a probe that is oxidized to the fluorescent product DCF upon exposure to hydrogen peroxide, peroxynitrite, hydroxyl radical and nitric oxide. Its concentration serves as an indicator of the overall degree of intracellular oxidative stress.
Cells seeded in 96-well plates were incubated for thirty minutes at 37 C in serum free media containing 5 μM of DCF-DA. The plates were then washed twice with Krebs Ringer Buffer (KR) and the fluorescence readings were taken every 15 min for 1 hr at Ex=485 and Em=530. Subtracted background values were obtained from wells containing DCF-DA without cells. […]

[4] = system: dermal fibroblasts; assay: BrdU cell proliferation assay in fibroblasts; type: cell-based, rat
Method: as §3, §4
(§5) The proliferation and collagen synthesis of cultured fibroblasts were determined using, respectively the 5-bromo-2-deoxyuridine (BrdU) incorporation into DNA and a radiolabelled proline uptake assay.
Cells were seeded into 96-microtiter plates at a concentration of 1.5×10^4 and allowed to adhere overnight in DMEM supplemented with 10% FCS. After arrest by incubation in DMEM supplemented with 0.5% FCS for 24 hrs, cells were exposed to IGF-I (50 ng/ml) in DMEM containing […] 5-bromo-2-deoxyuridine (BrdUrd). Incorporation of BrdUrd into DNA was estimated using 5-bromo-2-deoxyuridine labeling and detection kit (Roche Applied Science) according to the manufacturer's instructions.

[5] = Rapid insulin sensitivity test (RIST) with IGF-1 instead of insulin; type: in vivo, rat
Method: as §1, §2
IGF-1 sensitivity in control, diabetic and hypercortisolemic animals was determined using the rapid insulin sensitivity test (RIST) with IGF-1 (200 μg/kg BW) infused instead of insulin. The RIST index is the amount of glucose per kg body weight required to maintain euglycemia following a bolus of insulin (50 mU/kg BW).

[6] = system: excisional wounds; assay: Full-thickness excisional wound healing, 7 days; type: in vivo, rat; details: diabetic/hypercortisolemic rat wounds, antioxidant administered
Method: as §1, §2
Animals derived from various experimental groups were anesthetized by ip, injection of 90 mg ketamine+10 mg xylazine/kg body weight, and their back skin was shaved, depilated with Nair and cleaned with 70% alcohol. Six bilateral full-thickness excisional wounds (8 mm in diameter) at equidistant from midline were created on the dorso-rostral back skin. Wounds were separated by a minimum of 1 cm of uninjured skin. […] The wound area was analyzed using Adobe PhotoShop (version 7.0; Adobe Systems) and the percentage of wound closure was derived by the following formula: (1−[current wound size/initial wound size])×100.

[7] = system: PI3K-p85α / IRS-1; assay: Co-precipitation of PI3K p85α with IRS-1 in dermal fibroblasts; type: cell-based, rat; details: fibroblasts exposed to IGF-1
Method: as §3, with “The cell pellet was washed two times with PBS, re-suspended in complete medium (DMEM supplemented with 10% fetal calf serum, penicillin (100 U/ml), streptomycin (100 μg/ml)), 2 mM L-glutamine and 10 mM HEPES) and then cultured under a standard condition.” left out
(§6) A hypercortisolemic state was mimicked by exposing control fibroblasts to dexamethasone (Dexa, Sigma) administered at 20 ng/ml every other day for a duration of 8 days. […] The concentration of IGF-1 (50 ng/ml, Peprotech) was determined by prior dose response experiment.
(§7) Levels/activities of key intracellular molecules in the IGF-1 signaling cascade including IRS-1, IRS-1 Tyr-p-612, PI3K-p85α, IRS-1 Ser-p (307), PI3K, Akt, p-Akt, INK and p-JNK were assessed using western blotting/immunoprecipitation and commercially available ELISA-based assays. […]

[8] = system: PI3K; assay: PI3K ELISA kinase assay on fibroblast lysates; type: cell-based, rat; details: fibroblasts exposed to IGF-1
Method: as §3, §6
PI3K activity was measured using PI3K ELISA (Echelon Biosciences Inc). […]

[9] = system: Akt; assay: Akt phosphorylation, western blotting in dermal fibroblasts; type: cell-based, rat; details: normal fibroblasts exposed to IGF-1; western blot
Method: as §3, with “The cell pellet was washed two times with PBS, re-suspended in complete medium (DMEM supplemented with 10% fetal calf serum, penicillin (100 U/ml), streptomycin (100 μg/ml)), 2 mM L-glutamine and 10 mM HEPES) and then cultured under a standard condition.” left out
as §6, §7

[10] = system: Akt; assay: Akt phosphorylation, FACE cell-based ELISA in fixed fibroblasts; design: species or system rat; details: normal fibroblasts exposed to IGF-1
Method: as §3, with “The cell pellet was washed two times with PBS, re-suspended in complete medium (DMEM supplemented with 10% fetal calf serum, penicillin (100 U/ml), streptomycin (100 μg/ml)), 2 mM L-glutamine and 10 mM HEPES) and then cultured under a standard condition.” left out
as §6
Activation of Akt and JNK was analyzed in fixed fibroblasts using FACE-Akt and FACE-JNK (both from Active Motife). […] Labeling with antibodies was conducted according to the manufacturer's protocol and the resulting phosphoantibody signal was calculated after correction for number of cells and total Akt or JNK levels in each sample. […]

[11] = system: dermal fibroblasts; assay: Radiolabelled proline uptake assay (collagen synthesis) in fibroblasts; type: cell-based, rat; details: control fibroblasts, IGF-1
Method: as §3, with “The cell pellet was washed two times with PBS, re-suspended in complete medium (DMEM supplemented with 10% fetal calf serum, penicillin (100 U/ml), streptomycin (100 μg/ml)), 2 mM L-glutamine and 10 mM HEPES) and then cultured under a standard condition.” left out
as §6, §5
A radiolabel proline uptake assay was used in the quantification of the rate of collagen synthesis in cultured fibroblasts derived from various experimental groups. […]

[12] = diabetic patients, cited from earlier work
[13] = Wistar rats, dexamethasone 2.5 μg/kg sc twice daily (hypercortisolemia model)
[14] = fibroblasts with diabetic, inflammatory or hypercortisolemia phenotypes, ROS suppressors

Compound: C[C@@H]1C[C@H]2[C@@H]3CCC4=CC(=O)C=C[C@]4(C)[C@@]3(F)[C@@H](O)C[C@]2(C)[C@@]1(O)C(=O)CO [Dexa, dexamethasone]
- FBG (fasting blood glucose) [1, 13]: 78 ± 9 mg/dL
- FFA (free fatty acid) [1, 13]: 706 ± 25 µM
- FPI (fasting plasma insulin) [1, 13]: 0.78 ± 0.061 ng/mL

Compound: O=C(O)CCCCC1CCSS1 (stereo not drawn) [α-lipoic acid]
- common defect in IGF-1 signaling [2, 14]: correct the common defect in IGF-1 signaling
- HSOS (oxidative stress) [3]: lessen the HSOS
- impairment in key fibroblast functions (collagen synthesis, cell proliferation, migration, contraction) [4, 14]: ameliorates
- improvement of glucose metabolism in response to bolus injection of IGF-1 ([5]; diabetic/hypercortisolemic rats, chronic administration of antioxidant): about 20%
- healing rates of wounds [6]: statistically indistinguishable from control rat wounds treated with IGF-1 alone
- abnormalities regarding lipid and carbohydrate profiles ([1]; diabetic and hypercortisolemic rats, chronic treatment with ROS suppressors): ameliorated

Compound: IGF-1
- phosphorylation of Tyr612 on IRS-1 ([2]; control fibroblasts exposed to IGF-1 (50 ng/ml)): induces rapid phosphorylation
- PI3K activation (p85α co-precipitated with IRS-1) [7]: activates PI3K
- PI3K enzymatic activity [8]: increases PI3K enzymatic activity
- Akt phosphorylation [9]: phosphorylated (activated)
- Akt phosphorylation [10]: phosphorylated (activated)
- increase in BrdU incorporation compared with medium only control ([4]; control fibroblasts, IGF-1 50 ng/ml, 24 hours): ~5 fold
- reduction of IGF-1 action in inducing DNA synthesis ([4]; diabetic fibroblasts): about 46%
- reduction of IGF-1 action in inducing DNA synthesis ([4]; hypercortisolemic fibroblasts): ~36%
- increase in collagen synthesis [11]: about 63%
- glucose metabolized in response to bolus injection of IGF-1 (RIST) ([5]; rats with diabetic complications or chemically-induced hypercortisolemia): about 125 mg glucose per kg body weight
- glucose metabolized in response to bolus injection of IGF-1 (RIST) ([5]; untreated rats): 175 mg glucose per kg
- glucose metabolism response to IGF-1 ([12]; 26 pmol continuous infusion): virtually no response
- decrease of response to IGF-1 relative to healthy adults ([12]; 52 pmol continuous infusion): ~40%
